{"source": "patent US8916526B2", "about": "“Flavanone derivative” (National University Corporation Okayama University, priority 2009, dated 2014)", "key": {"MRSA N315": {"system": "MRSA N315", "assay": "In vitro infectivity assay (MIC), broth dilution, Exp. Ex. 1-1", "format": "cell-based, Staphylococcus aureus", "details": "Staphylococcus aureus; MRSA N315; Mueller-Hinton broth, 35° C., 24 hours; read-out: MIC MRSA N315", "in_short": "(§1)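 Three runs per strain; each used broth dilution per CLSI, an inoculum near 10^5 CUF/[…], 0.85% NaCl Mueller-Hinton broth, and 35° C. incubation over 24 hours before MIC reading.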"}, "MRSA OM481": {"system": "MRSA OM481", "assay": "In vitro infectivity assay (MIC), broth dilution, Exp. Ex. 1-1", "format": "cell-based, Staphylococcus aureus", "details": "Staphylococcus aureus; MRSA OM481; Mueller-Hinton broth, 35° C., 24 hours; read-out: MIC MRSA OM481", "in_short": "as §1"}, "MRSA OM58": {"system": "MRSA OM58", "assay": "In vitro infectivity assay (MIC), broth dilution, Exp. Ex. 1-1", "format": "cell-based, Staphylococcus aureus", "details": "Staphylococcus aureus; MRSA OM58; Mueller-Hinton broth, 35° C., 24 hours; read-out: MIC MRSA OM58", "in_short": "as §1"}, "MSSA FDA 209P": {"system": "MSSA FDA 209P", "assay": "In vitro infectivity assay (MIC), broth dilution, Exp. Ex. 1-1", "format": "cell-based, Staphylococcus aureus", "details": "Staphylococcus aureus; MSSA FDA 209P; Mueller-Hinton broth, 35° C., 24 hours; read-out: MIC MSS 209P", "in_short": "as §1"}, "VISA Mu50": {"system": "VISA Mu50", "assay": "In vitro infectivity assay (MIC), broth dilution, Exp. Ex. 1-1", "format": "cell-based, Staphylococcus aureus", "details": "Staphylococcus aureus; VISA Mu50; Mueller-Hinton broth, 35° C., 24 hours; read-out: MIC VISA Mu50", "in_short": "as §1"}, "[1]": {"biological_target": "T1, DNA gyrase of Escherichia coli (Escherichia coli, UniProt P0AES4+P0AES6)", "T1 construct": "purchased John Innes Enterprises #K0001", "T1 sequence (P0AES4 whole entry, one chain of several)": "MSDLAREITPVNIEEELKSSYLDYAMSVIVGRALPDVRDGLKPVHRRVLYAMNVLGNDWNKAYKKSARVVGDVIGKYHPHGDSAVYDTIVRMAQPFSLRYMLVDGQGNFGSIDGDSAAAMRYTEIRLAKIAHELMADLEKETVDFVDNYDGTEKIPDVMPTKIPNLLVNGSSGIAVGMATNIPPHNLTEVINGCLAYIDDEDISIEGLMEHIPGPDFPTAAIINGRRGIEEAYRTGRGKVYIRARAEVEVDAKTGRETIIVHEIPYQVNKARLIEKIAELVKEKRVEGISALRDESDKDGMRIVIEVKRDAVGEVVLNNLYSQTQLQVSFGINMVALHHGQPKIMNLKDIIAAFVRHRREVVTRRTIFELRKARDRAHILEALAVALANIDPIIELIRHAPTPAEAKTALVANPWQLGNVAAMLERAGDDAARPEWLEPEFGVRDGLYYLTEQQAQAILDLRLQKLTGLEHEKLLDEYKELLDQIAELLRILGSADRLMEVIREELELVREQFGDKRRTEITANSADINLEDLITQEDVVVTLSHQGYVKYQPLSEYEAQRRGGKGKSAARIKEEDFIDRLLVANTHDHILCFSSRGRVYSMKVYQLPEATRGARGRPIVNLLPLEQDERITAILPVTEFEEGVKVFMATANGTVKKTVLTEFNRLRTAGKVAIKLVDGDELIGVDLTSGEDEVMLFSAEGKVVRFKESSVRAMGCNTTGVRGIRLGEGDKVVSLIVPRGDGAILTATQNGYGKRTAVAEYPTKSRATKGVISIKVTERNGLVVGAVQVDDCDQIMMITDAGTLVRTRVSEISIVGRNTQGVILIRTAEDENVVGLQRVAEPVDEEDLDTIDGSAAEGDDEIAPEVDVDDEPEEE", "assay": "DNA gyrase inhibition (supercoiling assay kit), Exp. Ex. 1-2", "format": "biochemical", "details": "E. coli DNA gyrase supercoiling, relaxed pBR322, 37° C., 30 minutes; read-out: Gyrase inhibitory activity IC50 (converted)", "in_short": "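Relaxed pBR322 DNA […] supercoiled by 1 U E. coli gyrase for 30 min at 37 °C in 35 mM Tris-HCl pH 7.5, 24 mM KCl, 4 mM MgCl2, 2 mM DTT, 1.8 mM spermidine, 1 mM ATP, 6.5% glycerol, 0.1 mg/ml BSA. Products resolved by gel electrophoresis; IC50 determined.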"}, "[2]": {"system": "Vancomycin intermediate-resistant Staphylococcus aureus Mu50", "assay": "In vitro infectivity assay (MIC), Exp. Ex. 2-1", "format": "cell-based", "details": "Staphylococcus aureus, VISA; Gram-positive; microdilution, MIC after 24 h; read-out: MIC VISA Mu50", "in_short": "(§2)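 Inoculate bacteria (about 10^5 CUF/[…]) into NaCl-supplemented (0.85%) Mueller-Hinton broth with compound dilutions, incubate 24 hours at 35° C, then record the minimum inhibitory concentration. Repeated three times.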"}, "[3]": {"system": "Vancomycin-resistant enterococci FN-1", "assay": "In vitro infectivity assay (MIC), Exp. Ex. 2-1", "format": "cell-based", "details": "Enterococcus, VRE; Gram-positive; microdilution, MIC after 24 h; read-out: MIC VRE FN-1", "in_short": "as §2"}, "[4]": {"system": "Vancomycin-resistant enterococci NCTC 12201", "assay": "In vitro infectivity assay (MIC), Exp. Ex. 2-1", "format": "cell-based", "details": "Enterococcus, NCTC 12201 / VRE; Gram-positive; microdilution, MIC after 24 h; read-out: MIC VRE NCTC 12201", "in_short": "as §2"}, "Escherichia coli K-12": {"system": "Escherichia coli K-12", "assay": "Antibacterial activity (MIC) against Gram-negative strains, microdilution", "format": "cell-based", "details": "K12, MIC after 24 h, read-out: MIC (Gram-nagative) K-12", "in_short": "(§3)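 CLSI broth microdilution in Mueller-Hinton broth with 0.85% NaCl, inoculum about 10^5 […]. Incubated 35° C for 24 hours; MIC taken as the minimum inhibitory concentration, measured three times.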"}, "[5]": {"system": "Pseodomonas aeruginosa PAOI", "assay": "Antibacterial activity (MIC) against Gram-negative strains, microdilution", "format": "cell-based", "details": "MIC after 24 h, read-out: MIC (Gram-nagative) PAO1", "in_short": "as §3"}, "[6]": {"biological_target": "T2, Escherichia coli Topoisomerase IV (Escherichia coli, UniProt P0AFI2+P20083)", "T2 construct": "purchased John Innes Enterprises", "T2 sequence (P20083 whole entry)": "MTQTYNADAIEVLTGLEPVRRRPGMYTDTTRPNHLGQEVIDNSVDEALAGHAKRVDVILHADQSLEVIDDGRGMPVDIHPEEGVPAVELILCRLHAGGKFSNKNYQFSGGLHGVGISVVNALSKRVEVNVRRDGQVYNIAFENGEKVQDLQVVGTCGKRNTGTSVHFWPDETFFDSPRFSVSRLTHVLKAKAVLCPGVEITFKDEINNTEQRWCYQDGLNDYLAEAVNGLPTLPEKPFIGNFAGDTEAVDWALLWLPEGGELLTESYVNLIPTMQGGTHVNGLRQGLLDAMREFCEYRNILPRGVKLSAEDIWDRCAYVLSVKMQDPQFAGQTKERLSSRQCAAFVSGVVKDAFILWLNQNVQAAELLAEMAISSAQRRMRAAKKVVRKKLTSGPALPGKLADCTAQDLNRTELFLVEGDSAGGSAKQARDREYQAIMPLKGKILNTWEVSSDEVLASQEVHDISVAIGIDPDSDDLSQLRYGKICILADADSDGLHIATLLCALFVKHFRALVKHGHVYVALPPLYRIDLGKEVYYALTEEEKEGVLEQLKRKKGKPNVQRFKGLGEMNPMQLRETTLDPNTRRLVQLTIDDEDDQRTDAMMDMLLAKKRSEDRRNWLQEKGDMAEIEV", "T2 sequence (P0AFI2 whole entry)": "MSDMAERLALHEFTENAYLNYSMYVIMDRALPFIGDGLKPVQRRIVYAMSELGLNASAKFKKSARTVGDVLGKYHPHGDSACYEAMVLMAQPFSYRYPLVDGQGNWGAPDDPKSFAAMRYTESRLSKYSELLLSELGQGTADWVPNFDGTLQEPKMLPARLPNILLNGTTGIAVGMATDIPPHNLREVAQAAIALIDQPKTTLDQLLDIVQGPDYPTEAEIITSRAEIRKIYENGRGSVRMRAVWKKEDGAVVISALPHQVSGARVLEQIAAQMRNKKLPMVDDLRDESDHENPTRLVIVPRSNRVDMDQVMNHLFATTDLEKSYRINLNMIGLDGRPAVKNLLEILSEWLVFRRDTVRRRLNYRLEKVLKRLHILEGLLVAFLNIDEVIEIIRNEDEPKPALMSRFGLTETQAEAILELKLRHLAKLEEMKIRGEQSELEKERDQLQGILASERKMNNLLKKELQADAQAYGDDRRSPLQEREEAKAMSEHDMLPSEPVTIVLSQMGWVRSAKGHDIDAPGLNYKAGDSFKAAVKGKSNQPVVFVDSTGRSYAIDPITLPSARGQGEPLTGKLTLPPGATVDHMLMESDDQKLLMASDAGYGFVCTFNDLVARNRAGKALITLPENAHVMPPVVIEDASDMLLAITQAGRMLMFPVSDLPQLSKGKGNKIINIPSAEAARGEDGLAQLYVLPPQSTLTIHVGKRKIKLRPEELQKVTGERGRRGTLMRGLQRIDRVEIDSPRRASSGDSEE", "assay": "Topoisomerase IV inhibition (decatenation kit), Exp. Ex. 2-3", "format": "biochemical", "details": "decatenation of kDNA, 37° C., 30 minutes; read-out: IC50 (E. coli topoisomerase IV inhibitions)", "in_short": "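Decatenation of 200 ng kinetoplast DNA by 1 unit enzyme, 30 min at 37 °C. S. aureus: 50 mM Tris-HCl pH 7.5, 350 mM potassium glutamate, 1.5 mM ATP; E. coli: 50 mM HEPES-KOH pH 7.6, 100 mM potassium glutamate, 1 mM ATP. Products resolved on 1.0% agarose in TAE.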"}}, "data": [{"smiles": "O=c1c(O)c(-c2ccc(O)c(O)c2)oc2cc(O)cc(O)c12", "note": "[Quercetin, quercetin, reference compound]", "values": [{"measurement": "MIC", "setting": "MRSA N315", "value": "> 128", "unit": "µg/mL"}, {"measurement": "MIC", "setting": "MRSA OM481", "value": "> 128", "unit": "µg/mL"}, {"measurement": "MIC", "setting": "MRSA OM58", "value": "> 128", "unit": "µg/mL"}, {"measurement": "MIC", "setting": "MSSA FDA 209P", "value": "> 128", "unit": "µg/mL"}, {"measurement": "MIC", "setting": "VISA Mu50", "value": "> 128", "unit": "µg/mL"}, {"measurement": "IC50", "setting": "[1]", "value": 2.61, "unit": "µM"}, {"measurement": "MIC", "setting": "[2]", "value": "> 128", "unit": "µg/mL"}, {"measurement": "MIC", "setting": "[3]", "value": "> 128", "unit": "µg/mL"}, {"measurement": "MIC", "setting": "[4]", "value": "> 128", "unit": "µg/mL"}, {"measurement": "MIC", "setting": "Escherichia coli K-12", "value": 64, "unit": "µg/mL"}, {"measurement": "MIC", "setting": "[5]", "value": "> 128", "unit": "µg/mL"}, {"measurement": "IC50", "setting": "[6]", "value": 4.42, "unit": "µM"}]}]}
